# Experimental data published in patent publication US10517913B2, “Composition for prevention, alleviation, or treatment of peripheral neuropathy comprising Lithospermi Radix extract as an effective component” (priority 2015, dated 2019).
# What was measured:
# CYP2B6 = assay: Induction of CYP2B6 gene expression in HepaRG (real-time PCR); type: in vitro ADME, human; details: 50 μM omeprazole (positive control), 24 hours
# Description: (§1) HepaRG was purchased from the Thermo Fisher Scientific. The cells were used immediately after purchase without any subculture. A William's medium E basal medium supplemented with Thaw, Plate & General Purpose Supplements was used for general cell culture. A William's medium E basal medium supplemented containing Induction Medium Supplements was used for induction experiment. The cells were cultured in a 24-well culture plate coated with collagen type I in an incubator at 37° C., 5% CO2. All culture media and additives used for HepaRG cell culture were purchased from the Thermo Fisher Scientific.
# (§2) According to [Materials and Methods 3-4], human hepatoma cell line (HepaRG) were plated at 5×10^5 cells/ml in a 24-well plate coated with collagen type I and cultured for 72 hours at 37° C., 5% CO2. Then, the cells were treated for 24 hours with a positive control drug or with a Lithospermi Radix extract (WLR) at concentrations of 10, 20, 100, and 500 μg/ml. For a positive control drug, 50 μM omeprazole was used for CYP1A2 and CYP2B6, and 10 μM rifampicin was used for CYP3A4 and P-gp. Distilled water was used as a negative control. After 24 hours, total RNA was extracted using an Easy-Spin™ Total RNA extraction kit (iNtRON Biotechnology). cDNA was synthesized from total RNA (500 ng) using oligo dT and iScript cDNA synthesis kit (Bio-Rad). […]
# CYP1A2 = assay: Induction of CYP1A2 gene expression in HepaRG (real-time PCR); type: in vitro ADME, human; details: 50 μM omeprazole (positive control), 24 hours
# Description: as §1, §2
# PC-12 cells [1] = assay: Neurite outgrowth assay kit (NS225), qualitative analysis; type: cell-based; details: 200 nM oxaliplatin, NGF 100 ng/ml, 48 hours
# Description: (§3) PC-12 was purchased from the ATCC (USA). The cells were cultured in a 100 mm cell culture dish coated with collagen type I in an incubator at 37° C., 5% CO2, using a DMEM basal medium supplemented with 5% non-heat inactivated fetal bovine serum (FBS), 10% heat inactivated horse serum (HS), 100 unit/ml penicillin, and 100 μg/ml streptomycin. The basal medium, sera, and other additives were purchased from the Thermo Fisher Scientific.
# The neuroprotective effect of the Lithospermi Radix extract of the present invention was determined using a neurite outgrowth analysis kit (NS225, Millipore) with 1 μm pore-sized membrane.
# Specifically, PC-12 was cultured according to [Materials and Methods 3-1] for 72 hours in a DMEM low serum-differentiation medium supplemented with 1% horse serum, 100 unit/ml penicillin, 100 μg/ml streptomycin, and 100 ng/ml nerve growth factor (NGF). The membrane with 1 μm pores was coated by immersing it in a 24-well plate containing a 10 μg/ml collagen solution in an amount of 400 μl/well for 2 hours at 37° C. The collagen-coated membrane was transferred to a well containing a 600 μl of differentiation medium, and then, the differentiated PC-12 cells for 72 hours were plated at 75,000 cells/100 μl/membrane. The cells were treated with 200 nM oxaliplatin to induce neurotoxicity. […]
# PC-12 cells [2] = assay: NGF-induced neurite growth, quantitative image analysis; type: cell-based; details: 200 nM oxaliplatin, NGF 100 ng/ml, 3 days
# Description: as §3
# Specifically, PC-12 cells cultured according to [Materials and Methods 3-1] were evenly plated at 1×10^4 cells/well on a 24-well plate coated with collagen type IV in a DMEM growth medium where the cells were allowed to adhere on the bottom of the plate. After 12 hours, the medium was exchanged with a serum-free DMEM medium containing 100 ng/ml nerve growth factor (NGF) to induce neurite growth. The cells were treated with 200 nM oxaliplatin (Oxal) to induce neurotoxicity. Cells were co-treated with the Lithospermi Radix extract (WLR) prepared according to [Materials and Methods 1] at concentrations of 25 and 100 μg/ml, and amifostine (Ami) at 500 μM as a positive control. After 3 days, the ratios of cells forming neurites and the lengths of the neurites were quantified using image analysis under an optical microscope.
# [3] = system: dorsal root ganglion (DRG) neurons of peripheral neuropathic animals induced by oxaliplatin; assay: Morphological cell analysis of dorsal root ganglion neurons; type: in vivo, C57BL/6 mice
# Text: (§4) In the present invention, an animal model having peripheral neuropathy was induced by oxaliplatin. Eight-week old male C57BL/6 mice were purchased from the OrientBio. Following 1 week acclimation period in a cage in an animal test room, the base line (BL) of responses of experimental animals to 3 times of mechanical stimulations applied to the right hind footpad of the animal using von Frey filament hair. Then, the animals were divided into different groups (N=8 animals/group). Peripheral neuropathy was induced by injection of 5 mg/kg oxaliplatin through tail veins of animals (once a week, 2 times for 2 weeks, i.e., 10 mg/kg oxaliplatin in total). Oxaliplatin was purchased from the LC Laboratories.
# (§5) The specimens were prepared to histologically determine the protective effect of the Lithospermi Radix extract (WLR) against neuronal damage in peripheral neuropathic animals induced by oxaliplatin. Specifically, the animal was anaesthetized by intraperitoneal injection of sodium pentobarbital (50 mg/kg), and then, blood was removed by perfusion of 0.9% physiological saline through the aorta via left ventricle. Following fixation by perfusion of 4% paraformaldehyde solution buffered with 0.1 M phosphate, the 4th to 6th lumbar spinal cords, dorsal root ganglia, and the hind footpad skins were removed. The tissues were further fixed in the same fixation solution as above. The paraffin-embedded tissues were sectioned at a 4 μm thickness. The slices were mounted on a glass slide, dried, and then, kept at room temperature until use.
# Dorsal root ganglions were cut out, sectioned into slices with 4 μm thickness and then, subjected to Azan-Mallory trichrome staining. The nucleoli in the stained slice were examined under an optical microscope. Among the neurons having discernible nucleoli, the number of neurons having eccentric nucleoli or multinucleolated nucleus was expressed as a percentage of the total neurons in a viewing area.
# Specifically, peripheral neuropathy was induced in male C57BL/6 mice by oxaliplatin (10 mg/kg) according to [Materials and Methods 4]. After that, the mice were orally administered 6 times per week with 250 mg/kg of a Lithospermi Radix extract (WLR) prepared in [Materials and Methods 1] or 0.5% carboxymethyl cellulose (CMC) as a negative control. In addition, 100 mg/kg amifostine was intraperitoneally administered 2 times per week as a positive control. After drug administration for 2 weeks, dorsal root ganglion (DRG) was cut out according to [Materials and Methods 6-1]. Using the obtained specimen, morphological change of nucleus and nucleoli in the dorsal root ganglion (DRG) neurons was observed according to [Materials and Methods 6-4].
# [4] = system: human colon cancer cells (HCT116); assay: Drug-herb interaction with oxaliplatin cytotoxicity (Ez-Cytox), HCT116; type: cell-based; details: oxaliplatin 0 to 100 μg/ml alone (No treat), 72 hours
# Description: (§6) A549 and HCT116 cells were purchased from the ATCC (USA). They were cultured in a 100 mm cell culture dish in an incubator at 37° C., 5% CO2, using an RPMI1640 basal medium supplemented with 10% heat inactivated FBS, 100 unit/ml penicillin, and 100 μg/ml streptomycin, and then used for in vitro tests. The basal medium, serum, and other additives were purchased from the Thermo Fisher Scientific.
# (§7) Specifically, human lung cancer cells (A549) and human colon cancer cells (HCT116) were cultured according to [Materials and Methods 3-3]. The cells were plated in a 96-well culture dish at 5,000 cells per well. After 24 hours, the cells were simultaneously treated with serially diluted oxaliplatin (0 to 100 μg/ml) and the Lithospermi Radix extract (0(PBS), 10, 30, 100 μg/ml) prepared according to [Materials and Methods 1]. The cell only treated with oxaliplatin was served as a negative control. After 72 hours, the cell viability (%) was measured using Ez-Cytox assay kit. The rate of cell death (% death) caused by oxaliplatin was expressed by (100−cell viability (%)).
# [5] = system: human lung cancer cells (A549); assay: Drug-herb interaction with oxaliplatin cytotoxicity (Ez-Cytox), A549; type: cell-based; details: oxaliplatin 0 to 100 μg/ml alone (No treat), 72 hours
# Description: as §6, §7
# [6] = system: intraepidermal nerve fiber (IENF) of peripheral neuropathic animals induced by oxaliplatin; assay: Quantitative histological analysis of intraepidermal nerve fiber (PGP9.5) in hind footpad skin; type: in vivo, C57BL/6 mice
# Text: as §4, with “Laboratories. […]” for “Laboratories.”
# The slice of hind footpad skin with 4 μm thickness was subjected to immunofluorescence staining using a PGP9.5 antibody, a marker for IENF in skin. […] The expression level of intraepidermal nerve fibers was expressed by the number of fluorescence-stained nerves in epidermis which were stemmed from dermis per field length of the basal membrane of epidermis (IENF/mm) within a viewing area under a fluorescence microscope. The fluorescent microscopic images were analyzed compared with control treatment using a software (Cellsense, Olympus). […]
# [7] = system: astrocytes and microglial cells in spinal cord of peripheral neuropathic animals induced by oxaliplatin; assay: Immunohistological analysis of glial cells (GFAP, Iba-1) in lumbar spinal cord; type: in vivo, C57BL/6 mice
# Text: as §4, §5
# The slice of spinal cord with 4 μm thickness was subjected to immunofluorescence staining using antibodies against GFAP and Iba-1 which are astrocyte and microglial cell markers, respectively. After removal of paraffin and hydration, the slice was immersed in citrate buffer solution (Vector Lab., USA) for 10 minutes in a microwave to recover antigenicity and increase reactivity. […]
# The activity of the glial cells was expressed by the ratio (%) of the area of stained cells relative to the viewing area under a fluorescence microscope. The fluorescence microscopic images were analyzed compared to the control treatment using a software (Cellsense, Olympus).
# Specifically, peripheral neuropathy was induced in male C57BL/6 mice by oxaliplatin (10 mg/kg) according to [Materials and Methods 4]. […] Using the obtained specimen, activation of astrocytes and microglial cells in dorsal horn areas of the lumbar spinal cord of the animals was measured by detecting GFAP and Iba-1 marker proteins, respectively, according to [Materials and Methods 6-2]. Distribution of intraepidermal nerve fiber (IENF) in the hind footpad skin was measured by detecting PGP9.5 marker protein according to [Materials and Methods 6-3].
# P-gp = assay: Induction of P-gp gene expression in HepaRG (real-time PCR); type: in vitro ADME, human; details: 10 μM rifampicin (positive control), 24 hours
# Description: as §1, §2
# [8] = oxaliplatin 10 mg/kg, lumbar spinal cord dorsal horn
# [9] = after oxaliplatin 10 mg/kg, WLR 250 mg/kg oral 6 times per week or amifostine 100 mg/kg i.p. 2 times per week, 2 weeks
smiles,measurement,setting,value
COc1ccc2[nH]c([S+]([O-])Cc3ncc(C)c(OC)c3C)nc2c1 (centres unmarked) [omeprazole],expression of CYP2B6,CYP2B6,effectively enhanced
same,expression of CYP1A2,CYP1A2,effectively enhanced
O=C1[O][Pt]2([NH][C@@H]3CCCC[C@H]3[NH]2)[O]C1=O [oxaliplatin],Nerve growth factor-induced neurite growth,PC-12 cells [1],inhibited
same,neurite growth induced by nerve growth factor (NGF),PC-12 cells [2],inhibited
same,frequency of DRG neurons having eccentric nucleoli,[3]; oxaliplatin 10 mg/kg,increased
same,frequency of DRG neurons having multinucleolated nucleus,[3]; oxaliplatin 10 mg/kg,increased
same,growth of cancer cells,[4],inhibited
same,growth of cancer cells,[5],inhibited
same,densities of intraepidermal nerve fibers in hind footpad skin,[6]; oxaliplatin 10 mg/kg,reduced
same,number of activated astrocytes (GFAP positive cells),[7]; [8],increased
same,number of activated microglial cells (Iba-1 positive cells),[7]; [8],increased
NCCCNCCSP(=O)(O)O [amifostine],oxaliplatin-induced morphological change: DRG neurons having eccentric nucleoli,[3]; [9],reduced to the same extent
same,oxaliplatin-induced morphological change: number of neurons having multinucleolated nucleus,[3]; [9],decreased with statistical significance
same,oxaliplatin-reduced densities of intraepidermal nerve fibers in hind footpad skin,[6]; [9],recovered
same,oxaliplatin-increased number of activated astrocytes (GFAP positive cells),[7]; [9],reduced to the same extent
same,oxaliplatin-increased number of activated microglial cells (Iba-1 positive cells),[7]; [9],reduced to the same extent
CO[C@H]1/C=C/O[C@@]2(C)Oc3c(C)c(O)c4c(O)c(c(/C=N/N5CCN(C)CC5)c(O)c4c3C2=O)NC(=O)/C(C)=C\C=C\[C@H](C)[C@H](O)[C@@H](C)[C@@H](O)[C@@H](C)[C@H](OC(C)=O)[C@@H]1C [rifampicin],expression of P-gp,P-gp,effectively enhanced
